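Five compound concentrations were applied to cells in 96-well plates for 48 hours; endpoints were derived by simple linear interpolation of the resulting dose-response curve. GI50: concentration for 50% inhibition of growth.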 The source made the active and inactive calls. Cut-off read from the data, not from the text of the source: active = GI50 up to about 1.1 µM and inactive = higher.
Columns and labels:
Assay in all cases: NCI-60 cell line screen, 48 h
UACC-257 = test system: UACC-257
NCI/ADR-RES = test system: NCI/ADR-RES
MCF7 = test system: MCF7
MDA-MB-231 = test system: MDA-MB-231
M14 = test system: M14
SR = test system: SR
SW-620 = test system: SW-620
HCC 2998 = test system: HCC 2998
SNB-19 = test system: SNB-19
K562 = test system: K562
TK-10 = test system: TK-10
T47D = test system: T47D
NCI-H23 = test system: NCI-H23
SK-OV-3 = test system: SK-OV-3
786-0 = test system: 786-0
OVCAR-8 = test system: OVCAR-8
NCI-H226 = test system: NCI-H226
HL-60 = test system: HL-60
CCRF-CEM = test system: CCRF-CEM
DU-145 = test system: DU-145

SMILES | GI50 (UACC-257) | GI50 (NCI/ADR-RES) | GI50 (MCF7) | GI50 (MDA-MB-231) | GI50 (M14) | GI50 (SR) | GI50 (SW-620) | GI50 (HCC 2998) | GI50 (SNB-19) | GI50 (K562) | GI50 (TK-10) | GI50 (T47D) | GI50 (NCI-H23) | GI50 (SK-OV-3) | GI50 (786-0) | GI50 (OVCAR-8) | GI50 (NCI-H226) | GI50 (HL-60) | GI50 (CCRF-CEM) | GI50 (DU-145)
COP1(=O)OCc2cnccc2O1 (stereo not drawn) | > 100 µM (inactive) | > 100 µM (inactive) | > 100 µM (inactive) | > 100 µM (inactive) | > 100 µM (inactive) | > 100 µM (inactive) | > 100 µM (inactive) | > 100 µM (inactive) | > 100 µM (inactive) | > 100 µM (inactive) | > 100 µM (inactive) | > 100 µM (inactive) | > 100 µM (inactive) | > 100 µM (inactive) | > 100 µM (inactive) | > 100 µM (inactive) | > 100 µM (inactive) | – | – | –
CC(=O)O[C@@H]1O[Si](C(C)(C)C)(C(C)(C)C)[C@H](C)[C@H]1C | > 100 µM (inactive) | > 100 µM (inactive) | 19.1 µM (inactive) | > 100 µM (inactive) | 38.6 µM (inactive) | > 100 µM (inactive) | 40 µM (inactive) | 92.7 µM (inactive) | > 100 µM (inactive) | 31.8 µM (inactive) | > 100 µM (inactive) | > 100 µM (inactive) | > 100 µM (inactive) | > 100 µM (inactive) | 33.5 µM (inactive) | > 100 µM (inactive) | > 100 µM (inactive) | 21.9 µM (inactive) | 40.6 µM (inactive) | –
CCc1cc2c(c3c1CCCC3=O)CC1(Cc3ccc(C(=O)OC)cc3C1)C2 (stereo not drawn) | 32.1 µM (inactive) | 76 µM (inactive) | 24 µM (inactive) | > 100 µM (inactive) | 94.8 µM (inactive) | – | > 100 µM (inactive) | 93.1 µM (inactive) | > 100 µM (inactive) | 22 µM (inactive) | > 100 µM (inactive) | 65.2 µM (inactive) | 85.7 µM (inactive) | > 100 µM (inactive) | 84.5 µM (inactive) | > 100 µM (inactive) | > 100 µM (inactive) | 22.5 µM (inactive) | 29.3 µM (inactive) | > 100 µM (inactive)
O=c1[nH]c2c(C(F)(F)F)c(Cl)c(-c3ccccc3)nc2o1 | 14.1 µM (inactive) | 16.6 µM (inactive) | 45.6 µM (inactive) | 25.1 µM (inactive) | 21.5 µM (inactive) | – | 33.8 µM (inactive) | 25.5 µM (inactive) | 25.5 µM (inactive) | 27.2 µM (inactive) | 31.2 µM (inactive) | 20.2 µM (inactive) | 15.3 µM (inactive) | 23.6 µM (inactive) | 24.4 µM (inactive) | 31.3 µM (inactive) | 30.3 µM (inactive) | 1.41 µM (inactive) | 10 µM (inactive) | 38.1 µM (inactive)
CO[C@@](c1ccccc1)(c1nc(C#N)c(N)o1)C(F)(F)F | 85.5 µM (inactive) | > 100 µM (inactive) | > 100 µM (inactive) | > 100 µM (inactive) | > 100 µM (inactive) | – | 86.5 µM (inactive) | > 100 µM (inactive) | > 100 µM (inactive) | 33.7 µM (inactive) | > 100 µM (inactive) | > 100 µM (inactive) | > 100 µM (inactive) | > 100 µM (inactive) | > 100 µM (inactive) | > 100 µM (inactive) | > 100 µM (inactive) | – | 26.5 µM (inactive) | > 100 µM (inactive)
CCCCC/C=C\C=C\CCCCCCCCC(=O)OC | > 100 µM (inactive) | > 100 µM (inactive) | > 100 µM (inactive) | > 100 µM (inactive) | > 100 µM (inactive) | > 100 µM (inactive) | > 100 µM (inactive) | – | > 100 µM (inactive) | > 100 µM (inactive) | > 100 µM (inactive) | > 100 µM (inactive) | > 100 µM (inactive) | > 100 µM (inactive) | > 100 µM (inactive) | > 100 µM (inactive) | > 100 µM (inactive) | > 100 µM (inactive) | – | > 100 µM (inactive)
CCCCCCCCCC[C@H](O)[C@H](O)CC[C@@H](O)[C@H]1CC[C@@H]([C@H]2CC[C@H](CCCCCCC[C@@H](O)CC3=C[C@H](C)OC3=O)O2)O1 | 1.55 µM (inactive) | 1.25 µM (inactive) | 1.16 µM (inactive) | 2.31 µM (inactive) | 3.34 µM (inactive) | – | 2.56 µM (inactive) | 18.8 µM (inactive) | 1.84 µM (inactive) | 1.7 µM (inactive) | 4.95 µM (inactive) | 3.16 µM (inactive) | 0.00746 µM (active) | – | 6.3 µM (inactive) | 2.95 µM (inactive) | 1.47 µM (inactive) | 1.9 µM (inactive) | 2.52 µM (inactive) | 4.65 µM (inactive)
